From US20210382039A1, “METHOD FOR ASSESSING THE ABILITY OF A SUBSTANCE OR OF A COMPOSITION TO PREVENT, SLOW OR ELIMINATE THE SIGNS OF AGEING OF THE SKIN OR OF THE LIPS” (SOCIETE D'EXPLOITATION DE PRODUITS POUR LES INDUSTRIES …, priority 2018, published 2021)

Legend:
[1] = tested on: extracellular interleukin IL-6; experiment: Contagious aging (bystander effect) model: extracellular IL-6 by ELISA in R6 young fibroblasts treated with product, then MCR20 conditioned medium; assay type: cell-based, human; conditions: for Extracellular IL-6, N1i: R6 passage young human dermal fibroblasts, treated then placed in contact with MCR20 conditioned medium, compositions diluted in 1,3-propanediol to 0.1% by mass
Experimental: This method uses a specific antibody for human IL-6 attached to the bottom of the wells of a measuring plate. The samples to be assayed are added to the wells and the IL-6 present in the samples binds to the immobilized antibody. The wells are then washed and another biotinylated anti-human IL-6 antibody is added.
The wells are once again rinsed to remove the nonbound antibody, and streptavidin conjugated to the enzyme HRP (horseradish peroxidase) is added to the wells. The wells are once again rinsed and the HRP substrate tetramethylbenzidine is added to the wells.
The intensity of the color develops proportionately to the amount of IL-6 bound. The “stop” solution changes the color from blue to yellow, and the color intensity is measured at 450 nm by spectrophotometry. The IL-6 concentration is calculated by referring to a calibration range.
The particular process thus comprises the following steps: • Step i) of culturing of culturing human dermal fibroblasts, taken at the R19 passage in T25 flasks, • Step ii) of amplification of the cells obtained on conclusion of step i) to obtain a medium conditioned with senescent cells or “MC R20”. Amplification of the cells obtained on conclusion of step i) is performed by seeding said cells in Petri dishes at 0.3 M/Petri dish. After amplification for 4 days in Petri dishes, the culture medium of all the dishes was changed and then recovered after 48 hours of incubation. This recovered medium corresponds to the medium conditioned with senescent cells containing the SMS mediators (MCR20). • Step iii) of culturing human dermal fibroblasts, taken at the R5 passage in T25 flasks, • a step iv) of amplification of the cells obtained on conclusion of step iii) to obtain to obtain “young” or “R6” cells in the amplification phase, Steps iii) and iv) are performed in parallel with steps i) and ii).

β-galactosidase = experiment: Contagious aging (bystander effect) model: β-galactosidase activity by X-gal staining in R6 young fibroblasts treated with product, then MCR20 conditioned medium; assay type: cell-based; conditions: R6 passage young human dermal fibroblasts, treated then placed in contact with MCR20 conditioned medium; compositions diluted in 1,3-propanediol to 0.1% by mass
Experimental: Measurement of the activity of the β-galactosidase enzyme is performed at the metabolic level, and even more particularly with a measurement involving colorimetric enzymatic detection.
Briefly, the β-galactosidase present in the cells reacts specifically with one of its substrates, X-gal (or 5-bromo-4-chloro-3-indolyl-β-D-galactopyranoside (C14H15BrClNO6)) which is deposited on the cell lawns. This substrate is a galactoside, a galactose heteroside, bonded to a substituted indole nucleus.
The particular process thus comprises the following steps: • Step i) of culturing of culturing human dermal fibroblasts, taken at the R19 passage in T25 flasks, • Step ii) of amplification of the cells obtained on conclusion of step i) to obtain a medium conditioned with senescent cells or “MC R20”. Amplification of the cells obtained on conclusion of step i) is performed by seeding said cells in Petri dishes at 0.3 M/Petri dish. After amplification for 4 days in Petri dishes, the culture medium of all the dishes was changed and then recovered after 48 hours of incubation. […]

SMILES | Ratio R1=[(N10−N1i)×100]/[(N10−N1)] for extracellular IL-6 ([1]; N1 = 8.96 (untreated, unstressed), N10 = 41.38 (untreated, MCR20)) | Extracellular IL-6, N1i [1] | β-galactosidase, N2i (β-galactosidase)
OCCCO [1,3-propanediol] | R1 = 13.35 | N1i = 37.05 ± 2.57 pg/μg of proteins | N2i = 13.40 ± 2.69 number of “blue” positive cells/total number of cells
O=C1O[C@H]([C@@H](O)CO)C(O)=C1O [vitamin C, ascorbic acid, reference compound] |  | N1i = 27.31 ± 3.87 pg/μg of proteins | 
CC(=O)Oc1c(C)c(C)c2c(c1C)CC[C@@](C)(CCC[C@H](C)CCC[C@H](C)CCCC(C)C)O2 [vitamin E, D-α-tocopheryl acetate, reference compound] |  |  | N2i = 2.99 ± 0.45 number of “blue” positive cells/total number of cells
